{"source": "patent US11617754B2", "about": "“Methods of treating heart failure with preserved ejection fraction” (Poxel SA, priority 2017, dated 2023)", "assay_type_in_all_cases": "in vivo, rat", "key": {"Zucker fa/fa rats [1]": {"tested_on": "Zucker fa/fa rats", "assay": "Left ventricular oxidative stress: ROS production in LV homogenates by EPR, Zucker fa/fa rats", "conditions": "150 mg/kg bid", "experimental": "(§1) Experiments were performed on 12-week-old Male Zucker fa/fa rats or lean control rats purchased from Ch. River (US).\n(§2) Animals were kept 2 per cage in standard laboratory conditions, and drugs were administered by gavage (at 9 am and at 6 pm) at the dose of 150 mg/kg bid and administered for 9 or 90 days. Imeglimin's effects on cardiac dysfunction were assessed. • First experiment protocol:\nLeft ventricular reactive oxygen species production level were evaluated in left ventricular homogenates (obtained after 9 or 90 days of treatment) by electron paramagnetic resonance spectroscopy (EPR) using the spin probe 1-hydroxy-3-methoxycarbonyl-2,2,5,5-tetramethylpyrrolidine (CMH, Noxygen, Germany), as previously described (Mulder P, Eur Heart J. 2008; 29:2171-2179). Stock solution of CMH (50 mM) were prepared in Krebs-HEPES buffer (0.1 M NaCl, 5 mM KCl, 2.5 mM CaCl2, 1.2 mM MgSO4, 25 mM NaHCO3, 1 mM KH2PO4, 5.6 mM D(+)-Glucose, 20 mM Na-HEPES, pH 7.4) containing 25 μM deferoxamine and 5 μM diethyldithiocarbamate. […] The oxidation of CMH into the stable 3-methoxycarbonyl-proxyl (CM•), driven mainly by superoxide and peroxynitrite reactions, was recorded using a MiniScope MS-200 X-band spectrometer (Magnettech, Germany). […] Intensity of the spectra was measured from the height of the central line. CM• production was quantified using CP° standard and expressed in μmol of CM• per mg of total proteins."}, "[2]": {"tested_on": "septal coronary artery of Zucker fa/fa rats", "assay": "Coronary endothelial function: acetylcholine-induced relaxation of septal coronary artery from treated Zucker fa/fa rats", "conditions": "150 mg/kg bid, administration for 9 and 90 days, serotonin-precontracted segments", "experimental": "as §1, §2\nCoronary endothelial function was assessed after 9 or 90 days of treatment, as described previously (Fang Y H et al, Journal of Cardiovascular Pharmacology, 2012, 59: 260-267; Mulder et al., Eur Heart J., 2008, 29:2171-2179). In brief, at the end of the left ventricular function assessment, the heart was removed and immediately placed in cold oxygenated Krebs buffer. A 1.5- to 2-mm-long segment of arteries were carefully dissected and mounted in a small vessel myograph. Normalization procedure was performed after an equilibration period. Segments with an internal diameter<170 μm was excluded to avoid mechanical endothelial injury and unspecific dysfunction. Concentration-response curves to acetylcholine (10^−8 to 3×10^−5 mol/L) were performed in serotonin-precontracted segments (10^−5 mol/L)."}, "Zucker fa/fa rats [3]": {"tested_on": "Zucker fa/fa rats", "assay": "Myocardial perfusion by MRI (arterial spin labeling) in Zucker fa/fa rats", "conditions": "150 mg/kg bid, vs untreated Zucker fa/fa", "experimental": "as §1, §2\n(§3) The Zucker fa/fa animals were randomized on their body weight in two groups and three groups were then constituted: • Lean rats (Treated with vehicle n=12) • Control Zucker fa/fa rats (Treated with vehicle n=18) • Imeglimin treated Zucker fa/fa rats at the dose of 150 mg/kg bid (n=18)\n(§4) After a short-term treatment (9 days), cardiac function (echocardiography and MRI) and cardiac hemodynamics were assessed (1 h after the last treatment) on all rats. • Second experiment protocol: […]\n(§5) After a long-term treatment (90 days), cardiac function (echocardiography and MRI) and cardiac hemodynamics were assessed (1 h after the last treatment) on all rats.\nThe ECG signal was monitored by placing two subcutaneous electrodes on each side of the rat at chest level. […] Upon subtraction of an image acquired without spin labelling, the background signal from static spins is removed and the difference image can be used to quantify perfusion. […]"}, "Zucker fa/fa rats [4]": {"tested_on": "Zucker fa/fa rats", "assay": "Echocardiography, cardiac output in Zucker fa/fa rats", "conditions": "150 mg/kg bid, 90 days, vs untreated Zucker fa/fa", "experimental": "as §1, §2, §3, §4, §5\nStudies were performed on rats after 9 and 90 days of treatment. […] LV diameters were measured by the American Society of Echocardiography leading-edge method from at least 3 consecutive cardiac cycles. […]"}, "Zucker fa/fa rats [5]": {"tested_on": "Zucker fa/fa rats", "assay": "Cardiac histology: LV collagen density (Sirius red) in Zucker fa/fa rats", "conditions": "150 mg/kg bid, D90, mean ± SEM", "experimental": "as §1, §2\n(§6) The Zucker fa/fa animals were randomized on their body weight in two groups and three groups were then constituted: • Lean rats (Treated with vehicle n=18) • Control Zucker fa/fa rats (Treated with vehicle n=24) • Imeglimin treated Zucker fa/fa rats at the dose of 150 mg/kg bid (n=24)\nAt the end of the treatment period, the heart was taken out. After fixation, the left ventricle was cut in 3 sections of identical thickness. The sections of the heart were dehydrated and embedded in paraffin. 3 μm-thick sections were cut from each block and mounted on glass slides. Sections were stained with Sirius red for the determination of collagen. Slides were enlarged 500 times using a microscope connected to an image analysis system, as previously described (Mulder et al., J. Am. Coll. Cardiol., 1997). Collagen density was calculated in the left ventricle as the surface occupied by collagen divided by the surface of the image."}, "Zucker fa/fa rats [6]": {"tested_on": "Zucker fa/fa rats", "assay": "Cardiac hemodynamics (left ventricular pressure-volume curves) in Zucker fa/fa rats", "experimental": "as §1, §2, §3\nAfter a short-term treatment (9 days), cardiac function (echocardiography and MRI) and cardiac hemodynamics were assessed (1 h after the last treatment) on all rats. • Second experiment protocol:\nas §6, §5\nThe imeglimin suspension was prepared at the concentrations used in the study (150 mg/kg) and homogenized in 10 mL of the Methylcellulose solution. The drug suspension was prepared on the day of administration.\nLeft ventricle function was assessed using left pressure volume curves after 9 or 90 days of treatment, as previously described (Fang Y et al, J Mol Cell Cardiol., 2011, 51:168-176; Fang Y H et al, Journal of Cardiovascular Pharmacology, 2012, 59: 260-267). In brief, a 2F miniaturized combined conductance catheter-micromanometer (model SPR-819, Millar Instruments) connected to a pressure-conductance unit (MPCU-200, Millar) was advanced retrograde via the carotid artery into the left ventricle. This catheter has a micro-manometer surrounded by 4 platinum electrodes; the two outermost electrodes generate a current of 0.1 mA at a frequency of 20 kHz, which is sensed by the two innermost electrodes. Pressure-Volume (PV) loops were recorded at baseline and during loading by gently occluding the abdominal aorta with a cotton swab. Data were stored and analysed by using Millar conductance data acquisition and analysis software. Finally, the following parameters were measured/calculated from the pressure-volume curves: • Left ventricular end-diastolic pressure; • Left ventricular end-systolic pressure; • Left ventricular relaxation constant Tau; • Left ventricular end-diastolic pressure-volume relation; and • Left ventricular end-systolic pressure-volume relation. Coronary Endothelial Function"}, "[7]": {"conditions": "150 mg/kg bid, 90 days, vs untreated Zucker fa/fa"}}, "data": [{"smiles": "CC1N=C(N)NC(N(C)C)=N1", "note": "(single isomer, unassigned; (+)) [Imeglimin, (+)-2-amino-3,6-dihydro-4-dimethylamino-6-methyl-1,3,5-triazine]", "values": [{"measurement": "LV ROS production", "setting": "Zucker fa/fa rats [1]; D9, mean ± SEM", "result": "27.61 ± 1.29", "unit": "AU · μg^−1 · h^−1"}, {"measurement": "LV ROS production", "setting": "Zucker fa/fa rats [1]; D90, mean ± SEM", "result": "34.02 ± 1.49", "unit": "AU · μg^−1 · h^−1"}, {"measurement": "acetylcholine-induced relaxation of septal coronary artery (FIG. 3)", "setting": "[2]", "result": "prevented the impairment"}, {"measurement": "increase in the myocardial perfusion", "setting": "Zucker fa/fa rats [3]; 9 days", "result": "already significant"}, {"measurement": "myocardial perfusion (FIG. 2B)", "setting": "Zucker fa/fa rats [3]; 90 days", "result": "increased"}, {"measurement": "cardiac output (FIG. 2A)", "setting": "Zucker fa/fa rats [4]", "result": "increased"}, {"measurement": "LV collagen density", "setting": "Zucker fa/fa rats [5]", "result": "2.52 ± 0.20", "unit": "%"}, {"measurement": "reduction of the left ventricular end-diastolic pressure-volume relation", "setting": "Zucker fa/fa rats [6]; 150 mg/kg bid by gavage, 9 days of treatment", "result": "about 26%"}, {"measurement": "reduction of the left ventricular end-diastolic pressure-volume relation", "setting": "Zucker fa/fa rats [6]; 150 mg/kg bid by gavage, 90 days of treatment", "result": "~58", "unit": "%"}, {"measurement": "reduction of the left ventricular end-diastolic pressure-volume relation", "setting": "Zucker fa/fa rats [6]; 150 mg/kg bid, 9 days, vs untreated Zucker fa/fa", "result": "already significant"}, {"measurement": "LV compliance increase", "setting": "Zucker fa/fa rats [6]; 150 mg/kg bid, 90 days of treatment", "result": "about 50%"}, {"measurement": "LV end-diastolic pressure (FIG. 1A)", "setting": "Zucker fa/fa rats [6]; [7]", "result": "significant reduction"}, {"measurement": "LV end-diastolic pressure volume relation (FIG. 1C)", "setting": "Zucker fa/fa rats [6]; [7]", "result": "significant reduction"}, {"measurement": "LV relaxation constant Tau (FIG. 1B)", "setting": "Zucker fa/fa rats [6]; [7]", "result": "significant reduction"}]}]}
